For series [1], the target named is T1, HDAC1 (Homo sapiens, UniProt Q13547).
T1 construct: purchased Reaction Biology corporation (contract assay)
The experiment in a line: HDAC1 enzyme inhibition assay (single point and 10-dose IC50, Reaction Biology). Format: biochemical. On the procedure:
(§1) All IC50 measurements we performed by Reaction Biology corporation. Compounds were tested in
(§2) dilution starting at 1 uM. […]
(§3) (RHK(Ac)K(Ac)AMC). IC50 values were calculated using the GraphPad Prism 4 program based on a
(§4) sigmoidal dose-response equation. […]

The target in series [2] is T2, HDAC3 (Homo sapiens, UniProt O15379).
T2 construct: purchased Reaction Biology corporation (contract assay)
Kind of series: HDAC3 enzyme inhibition assay (single point and 10-dose IC50, Reaction Biology). Format: biochemical. On the procedure: as §1, §2, §3, §4

Series [3] has as its target T3, HDAC6 (Homo sapiens, UniProt Q9UBN7).
T3 construct: purchased Reaction Biology corporation (contract assay)
T3 sequence (Q9UBN7 1-1215): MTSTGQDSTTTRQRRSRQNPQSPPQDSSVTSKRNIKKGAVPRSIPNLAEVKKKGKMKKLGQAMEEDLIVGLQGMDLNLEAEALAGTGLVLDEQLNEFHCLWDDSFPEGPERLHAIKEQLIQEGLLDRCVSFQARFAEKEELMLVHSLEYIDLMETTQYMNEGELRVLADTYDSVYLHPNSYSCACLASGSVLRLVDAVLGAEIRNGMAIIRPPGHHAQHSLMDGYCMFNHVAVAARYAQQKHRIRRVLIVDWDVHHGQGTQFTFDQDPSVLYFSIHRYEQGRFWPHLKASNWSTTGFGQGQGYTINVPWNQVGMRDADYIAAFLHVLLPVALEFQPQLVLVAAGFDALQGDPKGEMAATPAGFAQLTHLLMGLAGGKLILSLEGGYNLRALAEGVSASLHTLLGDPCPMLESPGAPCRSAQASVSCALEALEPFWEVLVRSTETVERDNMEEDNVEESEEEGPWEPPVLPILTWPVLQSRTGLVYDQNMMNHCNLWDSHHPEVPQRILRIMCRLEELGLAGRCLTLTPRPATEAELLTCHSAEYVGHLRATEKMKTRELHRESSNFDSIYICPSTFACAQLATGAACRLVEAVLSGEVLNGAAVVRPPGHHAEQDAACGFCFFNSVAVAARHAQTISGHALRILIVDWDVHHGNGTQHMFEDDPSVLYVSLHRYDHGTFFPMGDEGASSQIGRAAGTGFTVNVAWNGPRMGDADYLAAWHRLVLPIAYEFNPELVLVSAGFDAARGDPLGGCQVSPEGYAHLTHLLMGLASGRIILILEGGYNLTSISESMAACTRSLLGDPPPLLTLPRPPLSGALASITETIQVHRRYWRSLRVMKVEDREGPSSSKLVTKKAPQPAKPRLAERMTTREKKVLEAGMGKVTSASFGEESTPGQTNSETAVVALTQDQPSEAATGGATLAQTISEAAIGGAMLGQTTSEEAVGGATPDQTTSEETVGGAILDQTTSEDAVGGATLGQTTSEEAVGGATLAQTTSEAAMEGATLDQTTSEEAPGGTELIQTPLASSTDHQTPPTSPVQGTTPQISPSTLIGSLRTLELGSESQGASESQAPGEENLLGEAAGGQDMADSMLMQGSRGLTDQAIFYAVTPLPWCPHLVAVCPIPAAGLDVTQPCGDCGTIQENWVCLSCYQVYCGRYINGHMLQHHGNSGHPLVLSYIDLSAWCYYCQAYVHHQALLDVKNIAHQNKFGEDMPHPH
The experiment in a line: HDAC6 enzyme inhibition assay (single point and 10-dose IC50, Reaction Biology). Format: biochemical. As to the method:
Against HDAC6, inhibition was determined using 0.01 µM of the inhibitor.
as §1, §2, §3, §4

A short description of series [4]: UV/Vis absorption and fluorescence (photophysical properties) in DMSO. The class given is physicochemical. As to the method: S1.6 UV/Vis and Fluorescence Data
UV/Vis analysis was performed on a Cary Eclipse 300 UV/Vis spectrophotometer and fluorescence measurements performed on a Cary Eclipse Fluorescence spectrophotometer. All analysis was performed in 10 mm quartz cuvettes using AR grade DMSO. Relative quantum yields were obtained by comparison to quinine sulfate (фf = 0.58 in 0.1 M H2SO4) with absorbance of samples adjusted so that the absorbance at 340 nm was similar to the reference.
Emission spectra were obtained by excitation at 340 nm. Quantum yield was obtained by use of the following equation and are reported as the average of two samples with error <5%; […]
Where фref is the literature quantum yield of the reference, η is the refractive index of the solvent (H2O = 1.333, DMSO = 1.479) and Is is the integrated fluorescence intensity of the sample with Iref being the same of the reference.
Table S1 – Photophysical properties of selected compounds in DMSO […]
†Average of two samples, ±1%

Where [5] appears, read: average of two independent measurements.
Setting [6] is: single point, inhibitor 1.0 μM, average of two measurements, ±2%.

Molecules are shown by their SMILES.

T2 sequence (O15379 whole entry): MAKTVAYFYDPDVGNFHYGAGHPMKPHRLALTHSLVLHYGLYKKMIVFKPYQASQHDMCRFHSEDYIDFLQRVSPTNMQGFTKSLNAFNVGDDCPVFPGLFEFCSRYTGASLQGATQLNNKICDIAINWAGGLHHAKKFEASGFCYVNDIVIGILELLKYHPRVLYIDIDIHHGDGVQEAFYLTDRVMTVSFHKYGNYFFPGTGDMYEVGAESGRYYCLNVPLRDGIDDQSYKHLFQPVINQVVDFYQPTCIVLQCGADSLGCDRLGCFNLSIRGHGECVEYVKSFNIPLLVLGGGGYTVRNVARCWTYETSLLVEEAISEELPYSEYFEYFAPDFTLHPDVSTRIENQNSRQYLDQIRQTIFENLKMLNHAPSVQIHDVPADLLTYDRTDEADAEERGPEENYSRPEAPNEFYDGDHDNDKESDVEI
T2 sequence (Q9Y618 395-489 partner limits assumed): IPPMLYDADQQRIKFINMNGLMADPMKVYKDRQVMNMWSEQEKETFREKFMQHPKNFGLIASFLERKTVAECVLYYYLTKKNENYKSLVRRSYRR
T1 sequence (Q13547 whole entry): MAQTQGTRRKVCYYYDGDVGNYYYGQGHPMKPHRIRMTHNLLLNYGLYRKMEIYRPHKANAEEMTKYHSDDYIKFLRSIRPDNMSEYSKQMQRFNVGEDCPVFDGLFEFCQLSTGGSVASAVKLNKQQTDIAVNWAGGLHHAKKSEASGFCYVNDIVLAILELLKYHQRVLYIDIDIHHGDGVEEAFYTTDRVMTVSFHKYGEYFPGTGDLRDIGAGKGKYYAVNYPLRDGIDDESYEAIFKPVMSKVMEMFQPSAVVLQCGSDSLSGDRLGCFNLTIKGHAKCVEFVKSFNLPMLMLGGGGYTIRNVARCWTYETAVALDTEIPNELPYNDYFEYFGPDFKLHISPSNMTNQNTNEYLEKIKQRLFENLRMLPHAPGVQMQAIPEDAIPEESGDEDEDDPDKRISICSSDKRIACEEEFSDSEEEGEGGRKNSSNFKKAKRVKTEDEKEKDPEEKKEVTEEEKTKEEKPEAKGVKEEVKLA

One may read the IC50 as the midpoint of a concentration-inhibition curve. A higher IC50 goes with a need for much substance. Take `O=C(CCCCCN1C(=O)c2cccc3cc(NC(=O)c4ccccc4)cc(c23)C1=O)NO` [KNH019]: the IC50 came to 91 ± 6 nM in series [1] (setting [5]), 64 ± 0.2 nM in series [2] (setting [5]) and 1 ± 0.005 nM in series [3] (setting [5]). Besides, the “Selectivity factor (SF) = HDAC1 IC50/HDAC6 IC50” value in series [1] (selectivity for HDAC6 over HDAC1) is given as 91. The “HDAC1 average enzyme isoform activity (percentage of full enzyme activity)” value in series [1] (setting [6]) came to 36.3%. Besides, the “Selectivity factor (SF) HDAC3 against HDAC6” value in series [2] (selectivity for HDAC6 over HDAC3) is recorded as 64. Moreover, in series [2] (setting [6]), the “HDAC3 average enzyme isoform activity (percentage of full enzyme activity)” value is given as 24.1%. Moreover, the “HDAC6 average enzyme isoform activity (percentage of full enzyme activity)” value in series [3] (single point, inhibitor 0.01 μM, average of two measurements, ±2%) is reported as 20.4%. For the same compound, the “λabs (absorption maximum)” value in series [4] worked out at 343 nm. The “λabs (secondary absorption maximum)” value in series [4] is 374 nm. For the same compound, in series [4] (excitation at 340 nm), the λem worked out at 437 nm. In addition, the “Φf (fluorescence quantum yield)” value in series [4] (relative to quinine sulfate, average of two samples) is 0.05.

The values above are taken from PMC8232238 (Cells, 2021).
